Read-outs that look alike come from different tables or passages of the source.
Key:
CRTH2 (KB8 cells) = molecular target: T1, CRTH2 (KB8 cells) (Homo sapiens, UniProt Q9Y5Y4); experiment: CRTH2 antagonist test (PGD2-induced intracellular calcium ion concentration increase in KB8 cells); type: cell-based
T1 construct: host or cells: KB8 cells (human CRTH2 expression cell)
T1 sequence (Q9Y5Y4 1-395): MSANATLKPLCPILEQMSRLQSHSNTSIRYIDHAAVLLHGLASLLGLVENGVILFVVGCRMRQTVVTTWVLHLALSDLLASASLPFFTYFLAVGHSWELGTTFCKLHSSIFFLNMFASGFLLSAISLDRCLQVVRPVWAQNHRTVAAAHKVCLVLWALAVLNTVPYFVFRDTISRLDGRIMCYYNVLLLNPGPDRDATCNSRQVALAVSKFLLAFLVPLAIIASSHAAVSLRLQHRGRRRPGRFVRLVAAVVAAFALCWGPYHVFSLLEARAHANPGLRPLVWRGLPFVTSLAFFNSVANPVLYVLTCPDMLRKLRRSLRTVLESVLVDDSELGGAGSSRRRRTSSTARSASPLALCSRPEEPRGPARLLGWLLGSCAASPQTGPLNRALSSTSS
Method in brief: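 Fluo-4-AM-loaded KB8 cells in HBSS with 10 mM HEPES and 1 mM CaCl2 received compound plus PGD2 (final 100 nM); peak fluorescence followed over time. Inhibition was computed against no-compound and unlabelled-PGD2 controls, and IC50 obtained from a dose-response curve.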

[1] = molecular target: T2, human CRTH2 expression cell KB8 (Homo sapiens, UniProt Q9Y5Y4); experiment: CRTH2 binding test (3H-PGD2 binding to KB8 cells); details: 3H-PGD2 5 nM, 4° C., one hour
T2 construct: host or cells: KB8 cells (human CRTH2 expression cell)
T2 sequence (Q9Y5Y4 1-395): T1 sequence (Q9Y5Y4 1-395)
Method: CRTH2 binding inhibitory activity of the compound of the present invention was considered by using a binding test between human CRTH2 expression cell KB8 (BML, INC.) and ^3H-labeled prostaglandin D2 (hereinafter, abbreviated as ^3H-PGD2, manufactured by GE Healthcare).
KB8 was suspended in a reaction buffer solution (Hank's balanced salt solution (Invitrogen) containing 10 mM HEPES (Invitrogen)), which was dispensed in a 96 well plate (Coaster) so that 2×10^5 cells/well are placed. Furthermore, the compound of the present invention and ^3H-PGD2 (final concentration: 5 nM) were added, stirred, and incubated at 4° C.
One hour later, cells were collected on GF/C Filter Plate (PerkinElmer) that had been pre-coated with 0.5% polyethyleneimine solution (SIGMA) by using a Cell Harvester (Packard BioScience), and the radioactivity of the cells was measured by using Top count NXT (PerkinElmer) (a value measured herein was represented by a measurement value “a”). The same procedure was carried out in the absence of the compound, and a measurement value “b” was obtained; and the same procedure was carried out in the absence of the compound and in the presence of non-labeled PGD2 (final concentration: 50 μM), a measurement value “c” was obtained.
The binding inhibition rate of the compound was calculated by the following calculation formula: Bonding inhibitory rate(%)=[1−(a−c)/(b−c)]×100
That is to say, by using binding inhibition rates of compounds to be tested having various concentrations, the IC50 value was calculated according to a dose-dependent inhibition curve analyzed by using XLfit (IDBS) as a data analysis software, and the calculated value was defined as an indicator of the inhibitory activity. In Table 9, A denotes an inhibitory activity showing the IC50 value of less than 50 nM; B denotes an inhibitory activity showing the IC50 value of 50 nM or greater and less than 500 nM; C denotes an inhibitory activity showing the IC50 value of 500 nM or greater and less than 1000 nM; and D denotes an inhibitory activity showing the IC50 value of 1000 nM or greater.

[2] = PGD2 final concentration 100 nM, Fluo-4-AM fluorescence, read-out: antagonist activity (IC50 value, inhibition of calcium ion concentration increase)
[3] = IC50 class, read-out: binding inhibitory activity
[4] = read-out: CRTH2 binding inhibitory activity IC50 value

| Compound | IC50 (CRTH2 (KB8 cells); [2]) | IC50 [1, 3] | IC50 [1, 4] | IC50 (CRTH2 (KB8 cells); PGD2 100 nM, Fluo-4 calcium fluorescence, read-out: CRTH2 antagonist activity IC50 value) |
| --- | --- | --- | --- | --- |
| O=C(O)Cc1cnc(Cc2ccc(NC(=O)c3ccc(Cl)c(Cl)c3)cc2)c2ccccc12 [Example 148, [1-(4-{[(3,4-dichlorophenyl)carbonyl]amino}benzyl)isoquinolin-4-yl]acetic acid] | < 50 nM | < 50 nM | – | – |
| O=C(O)Cc1cnc(C(=O)c2ccc(NC(=O)c3ccc(-c4ccccc4)cc3)cc2)c2ccccc12 [Example 10] | < 50 nM | < 50 nM | – | – |
| O=C(O)Cc1cnc(C(=O)c2ccc(OCCOc3ccc(Cl)cc3)cc2)c2ccccc12 [Example 143] | 50 to 500 nM | < 50 nM | 9.9 nM | – |
| O=C(O)Cc1cnc(Cc2ccc(C(=O)NCCc3ccc(Cl)cc3)cc2)c2ccccc12 [Example 153, [1-(4-{[2-(4-chlorophenyl)ethyl]carbamoyl}benzyl)isoquinolin-4-yl]acetic acid] | < 50 nM | < 50 nM | – | 12 nM |
| CN(C)c1ccc(C(=O)Nc2ccc(C(=O)c3ncc(CC(=O)O)c4ccccc34)cc2)cc1 [Example 12] | < 50 nM | < 50 nM | – | – |
| O=C(O)Cc1cnc(C(=O)c2ccc(NC(=O)C3(c4ccc(Cl)c(Cl)c4)CC3)cc2)c2ccccc12 [Example 5] | 50 to 500 nM | < 50 nM | – | – |
| O=C(O)Cc1cnc(C(=O)c2ccc(OCCc3ccc(Cl)cc3)cc2)c2ccccc12 [Example 141, [1-({4-[2-(4-chlorophenyl)ethoxy]phenyl}carbonyl)isoquinolin-4-yl]acetic acid] | 50 to 500 nM | < 50 nM | – | – |
| O=C(O)Cc1cnc(C(=O)c2ccc(NC(=O)c3ccc(C(F)(F)F)cc3)cc2)c2ccccc12 [Example 11] | < 50 nM | < 50 nM | – | – |
| O=C(O)Cc1cnc(C(=O)c2ccc(NC(=O)C3CCC(c4ccc(Cl)cc4)CC3)cc2)c2ccccc12 (centres unmarked) [Example 82] | < 50 nM | < 50 nM | 2.8 nM | – |
| N#Cc1ccc(C(=O)Nc2ccc(C(=O)c3ncc(CC(=O)O)c4ccccc34)cc2)cc1 [Example 13] | ≥ 1000 nM | < 50 nM | – | – |
| O=C(O)Cc1cnc(C(=O)c2ccc(C(=O)NCCc3ccc(Cl)cc3)cc2)c2ccccc12 [Example 135, {1-[(4-{[2-(4-chlorophenyl)ethyl]carbamoyl}phenyl)carbonyl]isoquinolin-4-yl}acetic acid] | < 50 nM | < 50 nM | – | – |
| O=C(O)Cc1cnc(C(=O)c2ccc(NC(=O)c3ccc(F)c(Cl)c3)cc2)c2ccccc12 [Example 34] | < 50 nM | < 50 nM | – | – |
| COc1ccc(CCNC(=O)c2ccc(C(=O)c3ncc(CC(=O)O)c4ccccc34)cc2)cc1 [Example 138] | < 50 nM | < 50 nM | – | – |
| O=C(O)Cc1cnc(C(=O)c2ccc(NC(=O)c3ccc(Cl)cc3)cc2)c2ccccc12 [Example 29] | < 50 nM | < 50 nM | – | – |
| O=C(O)Cc1cnc(C(=O)c2ccc(NC(=O)c3ccc4ccccc4c3)cc2)c2ccccc12 [Example 14] | < 50 nM | < 50 nM | – | – |
| O=C(O)Cc1cnc(C(=O)c2ccc(NC(=O)c3cccc(Br)c3)cc2)c2ccccc12 [Example 75] | < 50 nM | < 50 nM | 2.9 nM | – |
| CC(C)(C)OC(=O)Nc1ccc(C(=O)c2ncc(CC(=O)O)c3ccccc23)cc1 [Example 1, [1-({4-[(tert-butoxycarbonyl)amino]phenyl}carbonyl)isoquinolin-4-yl]acetic acid] | 50 to 500 nM | < 50 nM | – | – |
| O=C(O)Cc1cnc(C(=O)c2ccc(NC(=O)c3ccc([N+](=O)[O-])cc3)cc2)c2ccccc12 [Example 15] | < 50 nM | < 50 nM | – | – |
| O=C(O)Cc1cnc(C(=O)c2ccc(NC(=O)CC3CCCCC3)cc2)c2ccccc12 [Example 21] | 50 to 500 nM | < 50 nM | – | – |
| O=C(O)Cc1cnc(C(=O)c2ccc(NC(=O)OCc3ccc(Cl)c(Cl)c3)cc2)c2ccccc12 [Example 131, (1-{[4-({[(3,4-dichlorobenzyl)oxy]carbonyl}amino)phenyl]carbonyl}isoquinolin-4-yl)acetic acid] | < 50 nM | < 50 nM | – | – |
